Tests used:
[1] = Photophysical properties of the metallacrowns in solid state and in aqueous solutions; assay type: physicochemical
Description: FIG. 4. illustrates the normalized excitation (λem(Nd^3+)=1070 nm, λem(Yb^3+)=980 nm) and emission (λex=370 nm) spectra of Yb^3+[Zn(II)MCpyzHA], at the top, and Nd^3+[Zn(II)MCpyzHA] MCs, at the bottom, (solid or 200 μM solutions, room temperature).

HeLa cells [2] = assay: NIR epifluorescence microscopy of HeLa cells (necrotic cell labelling, simultaneous staining and fixing); assay type: cell-based, Human; settings: 150 μM complex and 3 μM propidium iodide together, UV light (377 nm) 5 minutes
Description: Cells were seeded in a 8-well Lab Tek Chamber coverglass (Nunc, Dutsher S.A., Brumath, France) at a density of 6×10^4 cells/well and cultured at 37° C. in 5% humidified CO2 atmosphere.
The continued incubation enabled the internalization of the complexes.
All of the previously mentioned incubated HeLa cells were then washed with fresh OPTI-MEM® media and were incubated with 3 μM propidium iodide for 5 minutes. Propidium iodide is a commercially available stain (emitting in the visible range) for necrotic cells, and was used to confirm cell necrosis.
i. 377 nm with 50 nm band-pass filter with 50 nm bandwidth for the excitation and 805 nm long-pass filter 805 nm or 996 nm band-pass filter with 70 nm bandwidth for YbIII emission in the NIR range.
ii. […] for the excitation and 805 nm long-pass filter 805 nm or 996 nm band-pass filter with 70 nm bandwidth for YbIII emission in the NIR range. […]

MSC stem cells = settings: 150 μM, 15 minutes, UV light (377 nm) 8 minutes, further 1 hour; λex 458 nm, λem 499-799 nm
Description: For these confocal microscopy experiments, the HeLa or MSC cells were prepared in the same way as for the epifluorescence microscopy experiments (see Example 1, Short incubation, UV light exposure #1 and #3). […] Complexes were excited with Argon laser at 458 nm and emission signal was collected from 499 nm to 799 nm. During this experiment, a 63× Plan-Apochromat objective was used (2× zoom).

[3] = Photostability stress tests; assay type: physicochemical; settings: 150 μM in water and OPTI-MEM media, 5 hours of irradiation with 377 nm light
Description: Photostability stress tests of Yb^3+[Zn(II)MCpyzHA] (Yb λem=980 nm) and Nd^3+[Zn(II)MCpyzHA] (Nd λem=1064 nm) and the commercially available dye for necrotic cells (Propidium Iodide) were performed. The complexes (150 μM) or dye (50 μM) were dissolved in water and the complexes were also dissolved in OPTI-MEM® media. The MC solutions were exposed to 5 hours of UV radiation (377 nm). The propidium iodide solution was exposed to 5 hours of UV radiation (530 nm).

HeLa cells [4] = assay: Raman spectroscopy of fixed HeLa cells; assay type: cell-based, Human; settings: cells stained and fixed as in Example 1
Description: Raman spectroscopy maps were collected for living HeLa cells, HeLa cells that were fixed with paraformaldehyde (PFA), HeLa cells that were fixed with methanol (MeOH), and HeLa cells that were stained and fixed with Yb^3+[Zn(II)MCpyzHA] using the example method disclosed herein (as described in Example 1).
Cells were seeded in an 8-well Lab Tek Chamber coverglass, as previously described in Example 1. Cells were washed trice with OPTI-MEM® (room temperature) and incubated with 4% PFA solution in PBS (Phosphate Buffered Saline) for 30 minutes at room temperature. […]
To study the changes between the different samples, a background subtraction was applied and the signal was collected in the range of 0-4000 cm^−1 in different cellular structures, cytoplasm and nucleus, allowing to observe the variations of specific vibrations arising from the nucleic acids and proteins, in particular, the CH vibrational bands at 2800-3300 cm^−1 that reflect a distribution of proteins, lipids and carbohydrates in cells and often used to localize cellular organelles, as well as OH band in the range of 3100-3650 cm^−1. […] However, a more detailed analysis of Raman signal is required to fully quantify and identify corresponding peaks in order to completely understand changes in the biomolecular profile observed for the fixation with Yb^3+[Zn(II)MCpyzHA].

[5] = system: MSC (Mesenchymal Stem Cells); settings: 150 μM, 15 minutes, UV light (377 nm) 8 minutes, further 1 hour
Description: The MSC (Mesenchyml Stem Cells) cell line was obtained from University in Orleans, 13MTO Laboratory (Orleans, France). The as-received MSC cell line has been obtained from the bone marrow of rats. The MSC cell line was cultured in Minimum Essential Medium (MEM) supplemented with 10% heat-inactivated fetal bovine serum (FBS), 1% of L-glutamine (GlutaMAX) and 1% of streptomycin/penicillin antibiotics. The MSC were also seeded in a similar manner to the HeLa cells.
After 24 hours, the respective cell culture media was removed and the HeLa cells or MSC were incubated with the Yb^3+[Zn(II)MCpyzHA] complex according to one of the following procedures.
The MSC cells were incubated with a solution of 150 μM Yb^3+[Zn(II)MCpyzHA] complex in OPTI-MEM® media (supplemented with 2% of FBS at 37° C. in 5% CO2 atmosphere) for 15 minutes, illuminated with UV light (377 nm) for 8 minutes, and then were allowed to continue incubating for 1 hour.
Prior to epifluorescent imaging, the HeLa and the MSC cells were washed twice with OPTI-MEM® (room temperature) in order to remove any non-specifically bound Yb^3+[Zn(II)MCpyzHA] complex.

[6] = Photophysical properties of the metallacrowns in solid state and in aqueous solutions; assay type: physicochemical; remark: listed apart in the source
HeLa cells [7] = assay: NIR epifluorescence microscopy of HeLa cells (necrotic cell labelling, simultaneous staining and fixing); assay type: cell-based, Human; settings: for Colocalization with propidium iodide: then 3 μM PI 5 minutes
[8] = 150 μM, 15 minutes, UV light (377 nm) 8 minutes, further 1 hour

Q (quantum yield), D2O ([1]; 200 μM in D2O, room temperature, excitation at 370 nm): 0.257(3) %
Q (quantum yield), H2O ([1]; 200 μM in H2O, room temperature, excitation at 370 nm): 1.12(7) · 10^−2%
Excitation wavelength limit ([1]; FIG. 4 (Top), excitation spectrum): up to 480 nm
Q (quantum yield), Solid ([1]; solid state, room temperature, excitation at 370 nm): 0.659(4) %
Photostability [3]: fully photostable
τ (luminescence lifetime), D2O ([6]; 200 μM in D2O, room temperature, excitation at 355 nm): 81.3(1) μs
τ (luminescence lifetime), H2O ([6]; 200 μM in H2O, room temperature, excitation at 355 nm): 5.57(1) μs
q (number of coordinated water molecules) ([6]; calculated from lifetimes, estimated error ±0.2): 0
τ (luminescence lifetime), Solid ([6]; solid state, room temperature, excitation at 355 nm): 45.6(3) μs
Structure (SMILES): O=C([N-][O-])c1cnccn1.O=C([N-][O-])c1cnccn1.O=C([N-][O-])c1cnccn1.O=C([N-][O-])c1cnccn1.O=C([N-][O-])c1cnccn1.O=C([N-][O-])c1cnccn1.O=C([N-][O-])c1cnccn1.O=C([N-][O-])c1cnccn1.O=C([N-][O-])c1cnccn1.O=C([N-][O-])c1cnccn1.O=C([N-][O-])c1cnccn1.O=C([N-][O-])c1cnccn1.O=C([N-][O-])c1cnccn1.O=C([N-][O-])c1cnccn1.O=C([N-][O-])c1cnccn1.O=C([N-][O-])c1cnccn1.O=S(=O)([O-])C(F)(F)F.O=S(=O)([O-])C(F)(F)F.O=S(=O)([O-])C(F)(F)F.[Yb+3].[Zn+2].[Zn+2].[Zn+2].[Zn+2].[Zn+2].[Zn+2].[Zn+2].[Zn+2].[Zn+2].[Zn+2].[Zn+2].[Zn+2].[Zn+2].[Zn+2].[Zn+2].[Zn+2].c1ccncc1.c1ccncc1.c1ccncc1.c1ccncc1.c1ccncc1.c1ccncc1.c1ccncc1.c1ccncc1 [Yb^3+[Zn(II)MCpyzHA]]
Incubation time after which emission was observed in cells after UV illumination (HeLa cells [2]): 20 min
Intracellular location (confocal, visible ligand emission) (MSC stem cells): specifically located in nucleus as well as in cytoplasm
Biomolecular profile of fixed HeLa cells compared with PFA and methanol fixation (Raman) (HeLa cells [4]): very similar biomolecular profiles
Function in MSC cells [5]: acting as an NIR dye and cell fixative
Selectivity of labelling for necrotic cells (HeLa cells [7]; 45 μM, 15 minutes, no UV light exposure (also 150 μM, 12 hours)): going exclusively in necrotic cells
Specificity of the dye for cell state (HeLa cells [7]; 150 μM complex and 3 μM propidium iodide together, UV light (377 nm) 5 minutes): specific for dead and apoptotic cells
NIR staining of fixed HeLa cancer cells (cell compartments) (HeLa cells [7]; [8]): operates as a NIR stain for the nucleus as well as for the cytoplasm
Shape and morphology of stained and fixed cells one month after the procedure (HeLa cells [7]; 150 μM, 15 minutes, UV light (377 nm) 8 minutes, further 1 hour, imaged one month later): maintained the same shape and morphology
Colocalization with propidium iodide (HeLa cells [7]; [8]): colocalize in the same cell compartments
Colocalization with propidium iodide (HeLa cells [7]; 150 μM, 12 hours, no UV light): colocalize in the same cell compartment
Toxicity to the HeLa cell line (HeLa cells [7]; 150 μM, incubation during 12 hours, no UV light exposure): toxic

Source: US10359430B2, “Selective near-infrared optical imaging of necrotic cells and simultaneous cell fixing and counter staining with metallacrown complexes” (THE REGENTS OF THE UNIVERSITY OF MICHIGAN, priority 2015, dated 2019)
